Source: patent US20230233541A1, “SUBSTITUTED BENZAMIDES AS MODULATORS OF TREX1” (Constellation Pharmaceuticals, Inc., priority 2020, published 2023)

Experiments:
full length human TREX1 = target: T1, full length human TREX1 (Homo sapiens, UniProt Q9NSU2); assay: TREX1 Biochemical Assay (fluorescence assay, degradation of dsDNA substrate); details: 150 pM TREX1, 60 nM dsDNA substrate, 25 minutes at room temperature; read-out: hTREX1 EC50
T1 construct: N-terminally His-Tev tagged full length human TREX1; His-Tev (His tag with TEV protease site) (N); made in house; host or cells: E. coli
T1 sequence (Q9NSU2 1-314): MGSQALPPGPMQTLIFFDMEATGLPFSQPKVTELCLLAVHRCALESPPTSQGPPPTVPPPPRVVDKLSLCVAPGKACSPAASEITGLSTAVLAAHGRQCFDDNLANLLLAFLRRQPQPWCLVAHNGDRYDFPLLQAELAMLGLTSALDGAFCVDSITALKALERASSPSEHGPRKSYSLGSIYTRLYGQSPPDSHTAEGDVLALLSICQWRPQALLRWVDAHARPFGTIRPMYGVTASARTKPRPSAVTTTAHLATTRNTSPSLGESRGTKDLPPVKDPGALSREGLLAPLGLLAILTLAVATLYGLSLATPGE
Outline: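 E. coli-expressed His-Tev-tagged full-length TREX1 (150 pM) with 60 nM quenched-fluorophore dsDNA in Tris pH 7.4, 150 mM NaCl, 100 mM MgCl2, 1% DMSO, 25 min room temperature, 10-point dose-response. EDTA stop; fluorescence 615 nm (ex 570 nm); IC50 from four-parameter fit against pre-quenched and no-inhibitor controls.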

[1] = target: T2, human TREX2 (residues M44-A279) (Homo sapiens, UniProt Q9BQ50); assay: TREX2 Biochemical Assay (fluorescence assay, degradation of dsDNA substrate); details: 2.5 nM TREX2, 60 nM dsDNA substrate, 25 minutes at room temperature; read-out: hTREX2 EC50
T2 construct: human TREX2 (residues M44-A279, expressed in E. coli); His-Tev (His tag with TEV protease site) (N); made in house; host or cells: E. coli
T2 sequence (Q9BQ50 44-279 isoform Q9BQ50-1): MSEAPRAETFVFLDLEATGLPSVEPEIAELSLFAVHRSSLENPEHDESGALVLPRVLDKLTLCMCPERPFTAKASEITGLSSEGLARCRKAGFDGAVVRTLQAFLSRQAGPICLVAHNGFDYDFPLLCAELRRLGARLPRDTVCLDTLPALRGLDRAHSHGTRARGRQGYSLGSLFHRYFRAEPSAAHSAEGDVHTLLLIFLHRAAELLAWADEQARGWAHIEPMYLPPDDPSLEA
Outline: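 His-Tev-tagged human TREX2 (M44-A279, E. coli-expressed) at 2.5 nM final, with 60 nM TEX615/quencher-labelled dsDNA in pH 7.4 Tris buffer with MgCl2 and 1.0% DMSO, 10-point dose-response, 25 min at room temperature, then EDTA quench. Fluorescence read at 615 nm (ex 570 nm). IC50 from four-parameter fit against pre-quenched and no-inhibitor controls.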

EC50 (full length human TREX1) [µM] | EC50 [1] [µM] | SMILES
1 to 10 | 10 to 100 | CC[C@@H](c1ccc(Cl)cc1Cl)N(Cc1cccnc1)C(=O)c1cccc(F)c1 (single isomer, unassigned) [Compound 158]
> 10 | > 100 | O=C(c1cccc(F)c1)N(CCc1ccccc1)Cc1cccnc1 [Compound 131]
> 10 | > 100 | O=C(CN1CCCC1)N(Cc1cccnc1)Cc1ccc(Cl)cc1Cl [Compound 91]
1 to 10 | 10 to 100 | N#CCC[C@H](c1ccccc1Cl)N(Cc1cccnc1)C(=O)c1cc(F)cc(F)c1 [Compound 178]
> 10 | > 100 | COc1cc(C(=O)N(Cc2cccnc2)Cc2cc(Cl)cc(Cl)c2)cc(Cl)c1O [Compound 67]
> 10 | > 100 | O=C(c1cc(F)ccc1F)N(Cc1cccnc1)Cc1ccc(Cl)cc1Cl [Compound 122]
1 to 10 | > 100 | O=C(c1ccc(F)c(F)c1F)N(Cc1cccnc1)Cc1ccc(Cl)cc1Cl [Compound 123]
> 10 | > 100 | O=C(CCCCc1ccccc1)N(Cc1cccnc1)Cc1ccc(Cl)cc1Cl [Compound 93]
> 10 | > 100 | O=C(C1CC1)N(Cc1cccnc1)Cc1ccc(Cl)cc1Cl [Compound 81]
> 10 | > 100 | COc1cc(C(=O)N(Cc2cccnc2)Cc2cc(Cl)cc(Cl)c2)cc(Br)c1O [Compound 62]
> 10 | > 100 | COc1cccc(C(=O)N(Cc2cccnc2)Cc2cc(Cl)cc(Cl)c2)c1 [Compound 36]
> 10 | > 100 | O=C(c1ccccc1)N(Cc1cccnc1)Cc1cc(Cl)cc(Cl)c1 [Compound 1, N-[(3,5-dichlorophenyl)methyl]-N-[(pyridin-3-yl)methyl]benzamide]
1 to 10 | > 100 | NC(=O)c1ccc(CN(Cc2cccc(Cl)c2Cl)C(=O)c2cc(F)cc(F)c2)cn1 [Compound 150]
> 10 | > 100 | O=C(c1ccc(Oc2ccc(F)cc2)cc1)N(Cc1cccnc1)Cc1ccc(Cl)cc1Cl [Compound 39]
1 to 10 | > 100 | O=C(c1ccc(F)c(F)c1)N(Cc1cccnc1)Cc1ccc(Cl)cc1Cl [Compound 101]
1 to 10 | 10 to 100 | NCCC[C@H](c1cccc(Cl)c1Cl)N(Cc1cccnc1)C(=O)c1cc(F)cc(F)c1 [Compound 249]
> 10 | > 100 | O=C(c1ccon1)N(Cc1cccnc1)Cc1ccc(Cl)cc1Cl [Compound 118]
> 10 | > 100 | Cc1ncc(CN(Cc2ccc(Cl)cc2Cl)C(=O)c2cccc(F)c2)cn1 [Compound 108]
> 10 | > 100 | O=C(c1cnco1)N(Cc1cccnc1)Cc1ccc(Cl)cc1Cl [Compound 117]
< 0.1 | 10 to 100 | CNc1cc(CN(Cc2cccc(Cl)c2Cl)C(=O)c2cc(F)cc(F)c2)cnc1C(=O)O [Compound 240]
> 10 | > 100 | O=C(c1ccc(Cl)cc1)N(Cc1cccnc1)Cc1cc(Cl)cc(Cl)c1 [Compound 29]
0.1 to 1 | 10 to 100 | O=C(c1cc(F)cc(F)c1)N(Cc1cccnc1)[C@H](c1cn[nH]c1)c1ccc(Cl)cc1Cl [Compound 220]
> 10 | > 100 | O=C(c1cocn1)N(Cc1cccnc1)Cc1ccc(Cl)cc1Cl [Compound 113]
< 0.1 | 1 to 10 | CC[C@H](c1ccc(OC)c(OC)c1Cl)N(Cc1ccc(C(=O)O)nc1)C(=O)c1cc(F)cc(F)c1 [Compound 226]
> 10 | > 100 | O=C(c1ccccc1N1CCCCC1)N(Cc1cccnc1)Cc1ccc(Cl)cc1Cl [Compound 42]

EC50 (full length human TREX1) [µM] | EC50 [1] [µM] | SMILES
> 10 | 10 to 100 | C[C@@H](c1ccc(C(N)=O)cc1Cl)N(Cc1cccnc1)C(=O)c1cccc(F)c1 (single isomer, unassigned) [Compound 164]
> 10 | > 100 | O=C(c1cccc(Oc2ccccc2)c1)N(Cc1cccnc1)Cc1ccc(Cl)cc1Cl [Compound 31]
> 10 | > 100 | C[C@H](c1cccnc1)N(Cc1ccc(Cl)cc1Cl)C(=O)c1cccc(F)c1 (single isomer, unassigned) [Compound 153]
> 10 | > 100 | O=C(c1ccccc1F)N(Cc1cccnc1)Cc1cc(Cl)cc(Cl)c1 [Compound 37]
< 0.1 | 1 to 10 | N#CC[C@H](c1cccc(Cl)c1Cl)N(Cc1cccnc1)C(=O)c1cc(F)cc(F)c1 [Compound 235]
0.1 to 1 | 10 to 100 | C[C@H](c1ccc(Cl)cc1Cl)N(Cc1cccnc1)C(=O)c1cccc(F)c1 [Compound 155]
> 10 | > 100 | O=C(c1ccc(F)c(Br)c1)N(Cc1cccnc1)Cc1cc(Cl)cc(Cl)c1 [Compound 38]
0.1 to 1 | 1 to 10 | O=C(c1cc(F)cc(F)c1)N(Cc1cnccc1Cl)Cc1cnccc1Cl [Compound 176]
1 to 10 | 10 to 100 | COc1cccc([C@H](C)N(Cc2ccc(-c3ccn[nH]3)nc2)C(=O)c2cc(F)cc(F)c2)c1Cl [Compound 224]
0.1 to 1 | 10 to 100 | O=C(O)c1ccc(CN(Cc2sc(Cl)nc2Cl)C(=O)c2cc(F)cc(F)c2)cn1 [Compound 200]
< 0.1 | 1 to 10 | CC[C@H](c1cccc(OC)c1Cl)N(Cc1ccc(C(=O)O)nc1)C(=O)c1cc(F)cc(F)c1 [Compound 166]
> 10 | > 100 | O=C(c1ccc(Cl)c(Cl)c1)N(Cc1cccnc1)Cc1cc(Cl)cc(Cl)c1 [Compound 75]
> 10 | > 100 | O=C(c1cccc(F)c1)N(Cc1cccnc1)CC1CCCCC1 [Compound 132]
< 0.1 | < 1 | Cc1cc(C(=O)O)ncc1CN(Cc1cccc(Cl)c1Cl)C(=O)c1cc(F)cc(F)c1 [Compound 205]
> 10 | > 100 | O=C(c1ncccn1)N(Cc1cccnc1)Cc1ccc(Cl)cc1Cl [Compound 102]
1 to 10 | > 100 | CS(=O)(=O)NC(=O)c1ccc(CN(Cc2cccc(Cl)c2Cl)C(=O)c2cccc(F)c2)cn1 [Compound 259]
1 to 10 | 10 to 100 | Cc1cccc(CN(Cc2cccnc2)C(=O)c2cccc(F)c2)c1Cl [Compound 135]
> 10 | > 100 | CC(C)Oc1ccc(C(=O)N(Cc2cccnc2)Cc2cc(Cl)cc(Cl)c2)cc1 [Compound 54]
> 10 | > 100 | O=C(c1cc(Cl)c(O)c(Cl)c1)N(Cc1cccnc1)Cc1cc(Cl)cc(Cl)c1 [Compound 49]
< 0.1 | 10 to 100 | CC[C@@H](c1cccc(OC)c1Cl)N(Cc1cnc(C(=O)O)c(N)c1)C(=O)c1cc(F)cc(F)c1 [Compound 252]
> 10 | > 100 | O=C(c1cccc(F)c1)N(Cc1ccc(C(F)(F)F)nc1)Cc1ccc(Cl)cc1Cl [Compound 105]
1 to 10 | 10 to 100 | O=C(O)c1ccc(CN(Cc2ccc(Cl)cc2Cl)C(=O)c2cc(F)cc(F)c2)cc1 [Compound 168]
< 0.1 | < 1 | O=C(O)c1ccc(CN(Cc2cccc(Cl)c2Cl)C(=O)c2cc(F)cc(F)c2)cn1 [Compound 148]
< 0.1 | 10 to 100 | CN(C)c1cc(C(=O)O)ncc1CN(Cc1cccc(Cl)c1Cl)C(=O)c1cc(F)cc(F)c1 [Compound 209]
